Read-outs that look alike come from different tables or passages of the source. Marks after values point to notes of the source that are not given here.
Columns and labels:
GLUT4 = test: Insulin-induced translocation of GLUT4 to plasma membrane in skeletal muscle of diabetic GK rats; type: in vivo; conditions: oral treatment for 9 weeks; insulin 0.5 U/kg i.p., 30 minutes; Western blot
Excerpt: Upper panel: Representative Western blot of plasma membrane GLUT4 in skeletal muscle of des-aspartate-angiotensin I treated and non treated diabetic GK rats. Lower panel: Relative (to the non insulin stimulated samples) levels of plasma membrane GLUT4 in skeletal muscle of des-aspartate-angiotensin I treated and control diabetic GK rats.
The diabetic GK rats described in EXAMPLE 9 were similarly treated for another week. At 9 weeks of treatment, animals were fasted overnight and half the animals in each group were intraperitoneally administered with PBS and the other half with insulin (0.5 U/kg). After 30 minutes, the animals were sacrificed by cervical dislocation. Hind limb skeletal muscles were rapidly excised and frozen in liquid nitrogen. Muscle samples were stored at −80° C. until used. The hindlimb muscles were subsequently thawed over an ice pack and plasma membranes were prepared as described by Dombrowaski et al. Thirty μg of protein from the 25% interface of the discontinued sucrose gradient was subjected to SDS-PAGE, transferred to PVDF sheets and incubated with anti-GLUT4 polyclonal primary antibody (1:800), washed and followed by incubation with anti-goat secondary antibody (1:10,000). The bands were detected at 49 kDa. […]

[1] = tested on: Influenza A/Aichi/2/68 virus; type: in vivo, BALB/c mice
diabetic KKAy mice [2] = test: Oral glucose tolerance test in diabetic KKAy mice, intraperitoneal treatment; type: in vivo; design: Serum glucose level: unit not given here; conditions: for Serum glucose level: oral glucose tolerance test
Procedure: (§1) The diabteic KKAy mice were divided into four groups consisting of 6 animals per group. Animals in the control group were intraperitoneally administered 0.1 mL saline. Animals in the second, third, and fourth groups were similarly administered with 100, 200, 400 nmole/kg des-aspartate-angiotensin I, respectively. Treatment with saline and des-aspartate-angiotensin I was carried out daily for 4 weeks. Following this, animals were fasted overnight for 16 hours and oral glucose tolerance test was performed as follows: blood was withdrawn from the orbital sinus for blood glucose determination (time of withdrawal was designated as 0 time), animals were then orally administered glucose (2 g/kg), and blood was withdrawn at 30, 60 and 120 min for blood glucose determination.
as §1, with “diabetic” for “diabteic”, “respectively in 0.1 ml of PBS.” for “respectively.”, “determination. The blood was allowed to clot and blood glucose was measured as serum glucose using a commercial glucose kit from Thermo Electron Corporation, Australia.” for “determination.”

diabetic KKAy mice [3] = test: Oral glucose tolerance test in diabetic KKAy mice, oral treatment; type: in vivo; design: Serum glucose level: unit not given here; conditions: for Serum glucose level: oral glucose tolerance test
Procedure: A dose-range finder experiment to determine the hypoglycaemic dose for orally administered des-aspartate-angiotensin I was also carried out. In this experiment, the animals in each of the three treatment groups of 7 diabetic KKAy mice were orally administered (by gavage) 200, 400, and 600 nmole/kg/day des-aspartate-angiotensin I in volume of 0.1 mL, respectively. Animals in the control group were similarly administered 0.1 mL water. The treatment period was 4 weeks. Oral glucose tolerance test was carried out as described in Example 5, except that blood was sampled at 0 and 30 min.
In this experiment, the animals in each of the three treatment groups of 7 diabetic KKAy mice were orally administered (by gavage) 200, 400, and 600 nmole/kg/day des-aspartate-angiotensin I in volume of 0.1 mL water, respectively. Animals in the control group were similarly administered 0.1 mL water. The treatment period was 4 weeks. Oral glucose tolerance test was carried out as described in EXAMPLE 7, except that blood was sampled at 0 and 30 min.

[4] = oral 1200 nmole/kg given as a single dose on Day 2 (n = 9), post infection day 11

## des-aspartate-angiotensin I (RVYIHPFHL; Angiotensin-1; UniProt P01019 26-34, looked up, fragment) [endogenous angiotensin peptide derived from angiotensin I by a specific aminopeptidase; purchased from Bachem]
GLUT4
  insulin-induced translocation of GLUT4 to the plasma membrane in skeletal muscle: significantly enhances
[1]; oral 300 nmole/kg/day for 16 days (n = 5), post infection day 0 (taken as 100%)
  Average Percentage Weight Change: 100%
[1]; oral 300 nmole/kg/day for 16 days (n = 5), post infection day 1
  Average Percentage Weight Change: 102.1 ± 1.5%
[1]; oral 300 nmole/kg/day for 16 days (n = 5), post infection day 2
  Average Percentage Weight Change: 96.2 ± 2.0%
[1]; oral 300 nmole/kg/day for 16 days (n = 5), post infection day 3
  Average Percentage Weight Change: 90.8 ± 2.4%
[1]; oral 300 nmole/kg/day for 16 days (n = 5), post infection day 4
  Average Percentage Weight Change: 85.8 ± 2.9%
[1]; oral 300 nmole/kg/day for 16 days (n = 5), post infection day 5
  Average Percentage Weight Change: 83.2 ± 3.4%
[1]; oral 300 nmole/kg/day for 16 days (n = 5), post infection day 6
  number of animals that died on the day of recording: 3
[1]; oral 300 nmole/kg/day for 16 days (n = 5), post infection day 6, two surviving mice, no SEM
  Average Percentage Weight Change: 94.1%
[1]; oral 300 nmole/kg/day for 16 days (n = 5), post infection day 7, two surviving mice, no SEM
  Average Percentage Weight Change: 95.7^# %
[1]; oral 300 nmole/kg/day for 16 days (n = 5), post infection day 8, two surviving mice, no SEM
  Average Percentage Weight Change: 97.9^# %
[1]; oral 300 nmole/kg/day for 16 days (n = 5), post infection day 9, two surviving mice, no SEM
  Average Percentage Weight Change: 98.7^# %
[1]; oral 300 nmole/kg/day for 16 days (n = 5), post infection day 10, two surviving mice, no SEM
  Average Percentage Weight Change: 98.1^# %
[1]; oral 300 nmole/kg/day for 16 days (n = 5), post infection day 11, two surviving mice, no SEM
  Average Percentage Weight Change: 97.4^# %
[1]; oral 300 nmole/kg/day for 16 days (n = 5), post infection day 12, two surviving mice, no SEM
  Average Percentage Weight Change: 96.9^# %
[1]; oral 300 nmole/kg/day for 16 days (n = 5), post infection day 13, two surviving mice, no SEM
  Average Percentage Weight Change: 96.8^# %
[1]; oral 300 nmole/kg/day for 16 days (n = 5), post infection day 14, two surviving mice, no SEM
  Average Percentage Weight Change: 98.2^# %
[1]; oral 300 nmole/kg/day for 16 days (n = 5), post infection day 15, two surviving mice, no SEM
  Average Percentage Weight Change: 99.6^# %
[1]; oral 300 nmole/kg/day for 16 days (n = 5), post infection day 16, two surviving mice, no SEM
  Average Percentage Weight Change: 102.4^# %
[1]; oral 600 nmole/kg administered daily for 8 days
  antiviral activity (attenuation of weight loss, survival): Effective antiviral activity
[1]; oral 600 nmole/kg/day for 16 days (n = 9), post infection day 0 (taken as 100%)
  Average Percentage Weight Change: 100%
[1]; oral 600 nmole/kg/day for 16 days (n = 9), post infection day 1
  Average Percentage Weight Change: 98.7 ± 1.3%
[1]; oral 600 nmole/kg/day for 16 days (n = 9), post infection day 2
  Average Percentage Weight Change: 95.8 ± 1.4%
[1]; oral 600 nmole/kg/day for 16 days (n = 9), post infection day 3
  Average Percentage Weight Change: 92.0 ± 1.7%
[1]; oral 600 nmole/kg/day for 16 days (n = 9), post infection day 4
  Average Percentage Weight Change: 92.4 ± 1.8 %
[1]; oral 600 nmole/kg/day for 16 days (n = 9), post infection day 5
  Average Percentage Weight Change: 94.8 ± 1.8 %
[1]; oral 600 nmole/kg/day for 16 days (n = 9), post infection day 6
  Average Percentage Weight Change: 95.5 ± 2.1 %
[1]; oral 600 nmole/kg/day for 16 days (n = 9), post infection day 7
  Average Percentage Weight Change: 97.8 ± 2.6 %
[1]; oral 600 nmole/kg/day for 16 days (n = 9), post infection day 8
  Average Percentage Weight Change: 96.7 ± 2.9%
[1]; oral 600 nmole/kg/day for 16 days (n = 9), post infection day 9
  Average Percentage Weight Change: 96.3 ± 3.5%
[1]; oral 600 nmole/kg/day for 16 days (n = 9), post infection day 10
  Average Percentage Weight Change: 95.6 ± 4.0%
[1]; oral 600 nmole/kg/day for 16 days (n = 9), post infection day 11
  Average Percentage Weight Change: 95.4 ± 4.5%
[1]; oral 600 nmole/kg/day for 16 days (n = 9), post infection day 12
  Average Percentage Weight Change: 95.1 ± 5.0%
[1]; oral 600 nmole/kg/day for 16 days (n = 9), post infection day 13
  Average Percentage Weight Change: 95.5 ± 5.2%
[1]; oral 600 nmole/kg/day for 16 days (n = 9), post infection day 14
  Average Percentage Weight Change: 99.1 ± 3.4%
[1]; oral 600 nmole/kg/day for 16 days (n = 9), post infection day 15
  Average Percentage Weight Change: 100.3 ± 4.2%
[1]; oral 600 nmole/kg/day for 16 days (n = 9), post infection day 16
  Average Percentage Weight Change: 97.0 ± 4.8%
[1]; oral 1200 nmole/kg given as a single dose on Day 2 (n = 9), post infection day 0 (taken as 100%)
  Average Percentage Weight Change: 100%
[1]; oral 1200 nmole/kg given as a single dose on Day 2 (n = 9), post infection day 1
  Average Percentage Weight Change: 103.5 ± 0.5%
[1]; oral 1200 nmole/kg given as a single dose on Day 2 (n = 9), post infection day 2
  Average Percentage Weight Change: 96.8 ± 0.6%
[1]; oral 1200 nmole/kg given as a single dose on Day 2 (n = 9), post infection day 3
  Average Percentage Weight Change: 95.1 ± 0.8 %
[1]; oral 1200 nmole/kg given as a single dose on Day 2 (n = 9), post infection day 4
  Average Percentage Weight Change: 96.7 ± 1.2 %
[1]; oral 1200 nmole/kg given as a single dose on Day 2 (n = 9), post infection day 5
  Average Percentage Weight Change: 96.3 ± 2.1 %
[1]; oral 1200 nmole/kg given as a single dose on Day 2 (n = 9), post infection day 6
  Average Percentage Weight Change: 95.7 ± 3.1 %
[1]; oral 1200 nmole/kg given as a single dose on Day 2 (n = 9), post infection day 7
  Average Percentage Weight Change: 97.8 ± 4.0 %
[1]; oral 1200 nmole/kg given as a single dose on Day 2 (n = 9), post infection day 8
  Average Percentage Weight Change: 98.3 ± 4.3%
[1]; oral 1200 nmole/kg given as a single dose on Day 2 (n = 9), post infection day 9
  Average Percentage Weight Change: 101.1 ± 4.7%
[1]; oral 1200 nmole/kg given as a single dose on Day 2 (n = 9), post infection day 10
  Average Percentage Weight Change: 101.1 ± 4.8%
[1]; [4]
  Average Percentage Weight Change: 105.9 ± 1.3%
  number of animals that died on the day of recording: 1
[1]; oral 1200 nmole/kg given as a single dose on Day 2 (n = 9), post infection day 12
  Average Percentage Weight Change: 106.1 ± 1.3%
[1]; oral 1200 nmole/kg given as a single dose on Day 2 (n = 9), post infection day 13
  Average Percentage Weight Change: 108.1 ± 1.2%
[1]; oral 1200 nmole/kg given as a single dose on Day 2 (n = 9), post infection day 14
  Average Percentage Weight Change: 107.2 ± 1.3%
[1]; oral 1200 nmole/kg given as a single dose on Day 2 (n = 9), post infection day 15
  Average Percentage Weight Change: 109.4 ± 1.2%
[1]; oral 1200 nmole/kg given as a single dose on Day 2 (n = 9), post infection day 16
  Average Percentage Weight Change: 108.4 ± 1.5%
[1]; oral single dose of 1200 nmole/kg given on Day 2
  antiviral activity (attenuation of weight loss, survival): Effective antiviral activity
Diabetic KKAy mice [2]; 100 nmole/kg i.p. daily for 4 weeks, 0 min
  Serum glucose level: 7.9 ± 0.9
Diabetic KKAy mice [2]; 100 nmole/kg i.p. daily for 4 weeks, 30 min
  Serum glucose level: 21.2 ± 1.6
Diabetic KKAy mice [2]; 100 nmole/kg i.p. daily for 4 weeks, 60 min
  Serum glucose level: 13.4 ± 1.3
Diabetic KKAy mice [2]; 100 nmole/kg i.p. daily for 4 weeks, 120 min
  Serum glucose level: 9.9 ± 0.5
Diabetic KKAy mice [2]; 200 nmole/kg i.p. daily for 4 weeks, 0 min
  Serum glucose level: 6.9 ± 0.9
Diabetic KKAy mice [2]; 200 nmole/kg i.p. daily for 4 weeks, 30 min
  Serum glucose level: 16.0 ± 1.4
Diabetic KKAy mice [2]; 200 nmole/kg i.p. daily for 4 weeks, 60 min
  Serum glucose level: 14.5 ± 0.9
Diabetic KKAy mice [2]; 200 nmole/kg i.p. daily for 4 weeks, 120 min
  Serum glucose level: 8.7 ± 1.2
Diabetic KKAy mice [2]; 400 nmole/kg i.p. daily for 4 weeks, 0 min
  Serum glucose level: 6.5 ± 0.6
Diabetic KKAy mice [2]; 400 nmole/kg i.p. daily for 4 weeks, 30 min
  Serum glucose level: 15.4 ± 1.6
Diabetic KKAy mice [2]; 400 nmole/kg i.p. daily for 4 weeks, 60 min
  Serum glucose level: 13.0 ± 1.1
Diabetic KKAy mice [2]; 400 nmole/kg i.p. daily for 4 weeks, 120 min
  Serum glucose level: 8.8 ± 0.6
Diabetic KKAy mice [2]; doses of 200 and 400 nmole/kg/day i.p. for 4 weeks, vs control
  blood glucose level at 30 and 60 min of the oral glucose tolerance test: significantly lowered
Diabetic KKAy mice [3]; 200 nmole/kg/day oral (gavage) for 4 weeks, 0 min
  Serum glucose level: 8.9 ± 1.0
Diabetic KKAy mice [3]; 200 nmole/kg/day oral (gavage) for 4 weeks, 30 min
  Serum glucose level: 37.7 ± 2.6
Diabetic KKAy mice [3]; 400 nmole/kg/day oral (gavage) for 4 weeks, 0 min
  Serum glucose level: 9.1 ± 1.6
Diabetic KKAy mice [3]; 400 nmole/kg/day oral (gavage) for 4 weeks, 30 min
  Serum glucose level: 26.0 ± 3.6
Diabetic KKAy mice [3]; 600 nmole/kg/day oral (gavage) for 4 weeks, 0 min
  Serum glucose level: 8.9 ± 0.7
Diabetic KKAy mice [3]; 600 nmole/kg/day oral (gavage) for 4 weeks, 30 min
  Serum glucose level: 17.5 ± 1.9
Diabetic KKAy mice [3]; oral dose of 600 nmole/kg/day for 4 weeks, KKAy mice
  hypoglycaemic action: significant hypoglycaemic action
